From PMC11764660, “Self-Assembled Peptide Hydrogels PPI45 and PPI47: Novel Drug Candidates for Staphylococcus aureus Infection Treatment” (Gels, 2025)
In brackets after ≈: the same amount, converted by molar mass. Positions of bridges follow the written chain, without caps; N, C: chain ends. Residues, ends and D or L forms follow the SMILES beside them.

Key:
[1] = test system: S. epidermidis ATCC 35984; experiment: MBC assay; type: cell-based, Staphylococcus epidermidis; details: colony counting, 99.9% criterion
Source text: (§1) Microbial cultures are quantified at concentrations surpassing the MIC to ascertain the number of viable bacterial cells. The lowest concentration at which the number of colonies is less than 99.9% at the time of initial inoculation is defined as MBC, which is capable of killing the bacteria.

[2] = test system: Staphylococcus aureus ATCC 43300; experiment: MBC assay; type: cell-based; details: colony counting at concentrations surpassing the MIC, 99.9% criterion
Source text: as §1

[3] = test system: Staphylococcus epidermidis ATCC 12228; experiment: MBC assay; type: cell-based; details: colony counting, 99.9% criterion
Source text: as §1

[4] = test system: Streptococcus dysgalactiae CVCC 3938; experiment: MBC assay; type: cell-based; details: colony counting, 99.9% criterion
Source text: as §1

[5] = test system: Escherichia coli ATCC 25922; experiment: MBC assay; type: cell-based; details: colony counting, 99.9% criterion
Source text: as §1

[6] = test system: Pseudomonas aeruginosa ATCC 10104; experiment: MBC assay; type: cell-based; details: colony counting, 99.9% criterion
Source text: as §1

[7] = test system: Streptococcus agalactiae ATCC 13813; experiment: MBC assay; type: cell-based; details: colony counting, 99.9% criterion
Source text: as §1

[8] = test system: S. aureus ATCC 25923; experiment: MBC assay; type: cell-based, Staphylococcus aureus; details: colony counting, 99.9% criterion
Source text: as §1

[9] = test system: S. aureus CVCC 546; experiment: MBC assay; type: cell-based, Staphylococcus aureus; details: colony counting, 99.9% criterion
Source text: as §1

[10] = test system: S. epidermidis ATCC 35984; experiment: MIC assay; type: cell-based, Staphylococcus epidermidis; details: 96-well plate, 10^5 CFU/mL, 37 °C, 12 to 18 h
Experimental: (§2) A series of concentration gradients of peptide solution (10, 20, 40, 80, 160, 320, 640, and 1280 µg/mL) and the bacterial suspension (10^5 CFU/mL) were added to a 96-well plate at a volume ratio of 10 µL: 90 µL. Subsequently, the plate was incubated at 37 °C for 12 to 18 h. The concentration in the final well of the 96-well plate where no bacterial growth is evident corresponds to the MIC value.

[11] = test system: HaCaT cells; experiment: Cytotoxicity analysis (CCK-8); type: cell-based, human; details: 2–256 µg/mL, 24 h, CCK-8, absorbance 450 nm, six replicates
Experimental: HaCaT cells, at a density of 2.5 × 10^5 cells/mL, were inoculated into 96-well plates and incubated in a cell culture incubator for 24 h. Following the removal of the medium, an equal volume of peptide solution, ranging in concentration from 2 to 256 µg/mL, was added, and the cells were incubated for an additional 24 h. The medium was subsequently removed, and the wells were washed three times with saline. CCK-8 solution ([…], 100 µL per well) was then added, and the plates were incubated for 2 h. Absorbance was measured at 450 nm using a microplate reader. Saline served as the negative control, while the medium without cells was used as the blank control. Six replicates were set for each concentration. Cell survival is calculated as follows: (As − Ab)/(Ac − Ab) × 100%.
As: Absorbance value of the experimental group (medium containing cells, sample, CCK-8)
Ac: Absorbance value of the control group (medium containing cells, no sample, CCK-8)
Ab: Absorbance value of the blank group (medium without cells, no sample, CCK-8)

[12] = test system: mouse erythrocytes; experiment: Hemolytic activity; type: cell-based; details: 1 h, 37 °C, absorbance 540 nm
Experimental: Equal volumes of the erythrocyte suspension and the peptide dilutions were combined and incubated for one hour at 37 °C. Subsequently, the mixture was centrifuged at 2000 rpm for 5 min, and the supernatant was transferred to a 96-well plate. The absorbance was then measured at 540 nm. Triton X-100 and physiological saline were employed as positive and negative controls, respectively. The percentage of hemolysis was calculated via the following formula:Hemolysis (%) = [(Apeptide − Asaline)/(A0.1% Triton X-100 − Asaline)] × 100%.

[13] = test system: S. aureus ATCC 25923; experiment: MIC assay; type: cell-based, Staphylococcus aureus; details: 96-well plate, 10^5 CFU/mL, 37 °C, 12 to 18 h
Experimental: as §2

[14] = test system: S. aureus CVCC 546; experiment: MIC assay; type: cell-based, Staphylococcus aureus; details: 96-well plate, 10^5 CFU/mL, 37 °C, 12 to 18 h
Experimental: as §2

[15] = test system: Staphylococcus aureus ATCC 43300; experiment: MIC assay; type: cell-based; details: 96-well plate, 10^5 CFU/mL, 37 °C, 12 to 18 h
Experimental: as §2

[16] = test system: Staphylococcus epidermidis ATCC 12228; experiment: MIC assay; type: cell-based; details: 96-well plate, 10^5 CFU/mL, 37 °C, 12 to 18 h
Experimental: as §2

[17] = test system: Streptococcus dysgalactiae CVCC 3938; experiment: MIC assay; type: cell-based; details: 96-well plate, 10^5 CFU/mL, 37 °C, 12 to 18 h
Experimental: as §2

[18] = test system: Escherichia coli ATCC 25922; experiment: MIC assay; type: cell-based; details: 96-well plate, 10^5 CFU/mL, 37 °C, 12 to 18 h
Experimental: as §2

[19] = test system: Pseudomonas aeruginosa ATCC 10104; experiment: MIC assay; type: cell-based; details: 96-well plate, 10^5 CFU/mL, 37 °C, 12 to 18 h
Experimental: as §2

[20] = test system: Streptococcus agalactiae ATCC 13813; experiment: MIC assay; type: cell-based; details: 96-well plate, 10^5 CFU/mL, 37 °C, 12 to 18 h
Experimental: as §2

[21] = concentration range 20–2560 µg/mL

Compound	MBC [1] [µg/mL]	MBC [2] [µg/mL]	MBC [3] [µg/mL]	MBC [4] [µg/mL]	MBC [5] [µg/mL]	MBC [6] [µg/mL]	MBC [7] [µg/mL]	MBC [8] [µg/mL]	MBC [9] [µg/mL]	MIC [10] [µg/mL]	cytotoxicity towards HaCaT cells [11]	MIC [13] [µg/mL]	MIC [14] [µg/mL]	MIC [15] [µg/mL]	MIC [16] [µg/mL]	MIC [17] [µg/mL]	MIC [18] [µg/mL]	MIC [19] [µg/mL]	MIC [20] [µg/mL]	hemolysis [12, 21]	other results
CC[C@H](C)[C@@H]1NC(=O)[C@H](CO)NC(=O)[C@H](CCCCN)NC(=O)[C@@H]2CSSC[C@@H](C(=O)N[C@@H](Cc3ccc(O)cc3)C(=O)O)NC(=O)[C@H](CCCCN)NC(=O)[C@@H]3CSSC[C@H](NC(=O)[C@H](CCCCN)NC(=O)[C@H](CCSC)NC(=O)[C@H](CC(=O)O)NC(=O)[C@H](CC(=O)O)NC(=O)[C@H](CCC(=O)O)NC(=O)[C@H](CO)NC(=O)[C@H](Cc4c[nH]c5ccccc45)NC(=O)[C@@H]4CCCN4C(=O)CNC(=O)[C@H](CC(N)=O)NC(=O)[C@@H](NC(=O)CNC(=O)[C@H](Cc4ccccc4)NC(=O)CN)CSSC[C@H](NC(=O)[C@H](Cc4ccc(O)cc4)NC(=O)CNC(=O)CNC(=O)[C@H](CCCCN)NC(=O)[C@H](Cc4ccc(O)cc4)NC(=O)CNC(=O)[C@H](CCCCN)NC1=O)C(=O)N[C@@H](C)C(=O)N[C@@H](CCCCN)C(=O)NCC(=O)NCC(=O)N[C@@H](Cc1ccccc1)C(=O)N[C@@H](CC(C)C)C(=O)N3)C(=O)N[C@@H](Cc1c[nH]cn1)C(=O)N[C@@H](CC(N)=O)C(=O)N[C@@H](Cc1c[nH]cn1)C(=O)N2 [PPI42, reference compound] (H-GFGCNGPWSEDDMKCHNHCKSIKGYKGGYCAKGGFLCKCY-OH; disulfide 4-30, 15-37, 19-39)	8 (≈ 1.82 µM)	8 (≈ 1.82 µM)	8 (≈ 1.82 µM)	4 (≈ 0.912 µM)	>64	>64	0.5 (≈ 0.114 µM)	16 (≈ 3.65 µM)	4 (≈ 0.912 µM)	2 (≈ 0.456 µM)	growth-promoting effects	8 (≈ 1.82 µM)	2 (≈ 0.456 µM)	8 (≈ 1.82 µM)	4 (≈ 0.912 µM)	4 (≈ 0.912 µM)	>64	>64	0.5 (≈ 0.114 µM)		hemolysis ([12]; 2560 µg/mL): 10%; hemolysis ([12]; up to 1280 µg/mL): minimal hemolysis
CC[C@H](C)[C@@H]1NC(=O)[C@H](CO)NC(=O)[C@H](CCCCN)NC(=O)[C@@H]2CSSC[C@@H](C(=O)N[C@@H](Cc3ccc(O)cc3)C(=O)O)NC(=O)[C@H](CCCCN)NC(=O)[C@@H]3CSSC[C@H](NC(=O)[C@H](CCCCN)NC(=O)[C@H](CCSC)NC(=O)[C@H](CC(=O)O)NC(=O)[C@H](CC(=O)O)NC(=O)[C@H](CCC(=O)O)NC(=O)[C@H](CC(N)=O)NC(=O)[C@H](Cc4c[nH]c5ccccc45)NC(=O)[C@@H]4CCCN4C(=O)CNC(=O)[C@H](CC(N)=O)NC(=O)[C@@H](NC(=O)CNC(=O)[C@H](Cc4ccccc4)NC(=O)CN)CSSC[C@H](NC(=O)[C@H](Cc4ccc(O)cc4)NC(=O)CNC(=O)CNC(=O)[C@H](CCCCN)NC(=O)[C@H](Cc4ccc(O)cc4)NC(=O)CNC(=O)[C@H](CCCCN)NC1=O)C(=O)N[C@@H](C)C(=O)N[C@@H](CCCCN)C(=O)NCC(=O)NCC(=O)N[C@@H](Cc1ccccc1)C(=O)N[C@@H](CC(C)C)C(=O)N3)C(=O)N[C@@H](Cc1c[nH]cn1)C(=O)N[C@@H](CC(N)=O)C(=O)N[C@@H](Cc1c[nH]cn1)C(=O)N2 [PPI45] (H-GFGCNGPWNEDDMKCHNHCKSIKGYKGGYCAKGGFLCKCY-OH; disulfide 4-30, 15-37, 19-39)	16 (≈ 3.62 µM)	4 (≈ 0.906 µM)	4 (≈ 0.906 µM)	4 (≈ 0.906 µM)	>64	>64	0.5 (≈ 0.113 µM)	16 (≈ 3.62 µM)	4 (≈ 0.906 µM)	16 (≈ 3.62 µM)	did not exhibit cytotoxicity	16 (≈ 3.62 µM)	4 (≈ 0.906 µM)	4 (≈ 0.906 µM)	4 (≈ 0.906 µM)	1 (≈ 0.226 µM)	>64	>64	0.5 (≈ 0.113 µM)	no hemolysis	
CC[C@H](C)[C@@H]1NC(=O)[C@H](CO)NC(=O)[C@H](CCCCN)NC(=O)[C@@H]2CSSC[C@@H](C(=O)N[C@@H](Cc3ccc(O)cc3)C(=O)O)NC(=O)[C@H](CCCCN)NC(=O)[C@@H]3CSSC[C@H](NC(=O)[C@H](CCCNC(=N)N)NC(=O)[C@H](CC(C)C)NC(=O)[C@H](CC(=O)O)NC(=O)[C@H](CC(=O)O)NC(=O)[C@H](CCC(=O)O)NC(=O)[C@H](CO)NC(=O)[C@H](Cc4c[nH]c5ccccc45)NC(=O)[C@@H]4CCCN4C(=O)CNC(=O)[C@H](CC(N)=O)NC(=O)[C@@H](NC(=O)CNC(=O)[C@H](Cc4ccccc4)NC(=O)CN)CSSC[C@H](NC(=O)[C@H](Cc4ccc(O)cc4)NC(=O)CNC(=O)CNC(=O)[C@H](CCCCN)NC(=O)[C@H](Cc4ccc(O)cc4)NC(=O)CNC(=O)[C@H](CCCCN)NC1=O)C(=O)N[C@@H](C)C(=O)N[C@@H](CCCCN)C(=O)NCC(=O)NCC(=O)N[C@@H](Cc1ccccc1)C(=O)N[C@@H](CC(C)C)C(=O)N3)C(=O)N[C@@H](Cc1c[nH]cn1)C(=O)N[C@@H](CC(N)=O)C(=O)N[C@@H](Cc1c[nH]cn1)C(=O)N2 [PPI47] (H-GFGCNGPWSEDDLRCHNHCKSIKGYKGGYCAKGGFLCKCY-OH; disulfide 4-30, 15-37, 19-39)	16 (≈ 3.64 µM)	8 (≈ 1.82 µM)	8 (≈ 1.82 µM)	4 (≈ 0.909 µM)	>64	>64	0.5 (≈ 0.114 µM)	16 (≈ 3.64 µM)	4 (≈ 0.909 µM)	16 (≈ 3.64 µM)	did not exhibit cytotoxicity	16 (≈ 3.64 µM)	4 (≈ 0.909 µM)	4 (≈ 0.909 µM)	4 (≈ 0.909 µM)	2 (≈ 0.455 µM)	>64	>64	0.5 (≈ 0.114 µM)	no hemolysis	
